In one test the test system is mouse tumor. In words: Mouse tumor injected with doxorubicin and control; fluorescent imaging of the apoptosis signal. The test is classed as in vivo. Particulars: FIG. 14; excitation 640 nm, emission 720 nm of the dye; versus control injection. The protocol: FIG. 14 depicts the use of various indicator dyes according to the method, to monitor spatially restricted delivery of compounds and resulting localized effects on regions of a tumor. A mouse tumor was injected with 1. doxorubicin; and 2. a control. Panel A illustrates excitation at 640 nm and emission at 800 nm of the dye. Panel B illustrates the doxorubicin signal (3.) observed after excitation at 500 nm and emission at 600 nm of doxorubicin. Panel C illustrates an apoptosis signal (4.) observed after excitation at 640 nm and emission at 720 nm of the dye.

For the next test, the system named is lymphoma tumor. As to the kind of experiment: Doxorubicin delivered to a lymphoma tumor with a needle array; excised tumor slices imaged by fluorescence and brightfield microscopy. In kind it is in vivo. An excerpt: Doxorubicin was delivered to a lymphoma tumor using a needle array of the method. The tumor was then excised and sectioned. […] Regions of doxorubicin fluorescence and cell death are localized to a zone within the tumor slice, reflecting spatially constrained doxorubicin delivery.

In test [1] the test system is Intracranial medulloblastoma model (conditional Patchedl null) mice. In words: Survival of intracranial medulloblastoma model mice. The test is classed as in vivo, mouse. Particulars: FIG. 13; 20 mg/kg daily; monitored for 50 days; versus vehicle only. The protocol:
The results of the in vivo experiment depicted in FIG. 12 predicted that Shh antagonists would have a positive effect on a mouse model of cancer. Intracranial medulloblastoma model (conditional Patchedl null) mice used in this experiment develop medulloblastoma with an early onset and 100% penetrance. Accordingly, mice were injected daily with 20 mg/kg of either A) vehicle plus IPI-926 (n=12); or B) vehicle only (n=11). The mice were monitored for 50 days for survival, and the results depicted in FIG. 13.

The structures appear in SMILES notation.

In the case of `COc1cccc2c1C(=O)c1c(O)c3c(c(O)c1C2=O)C[C@@](O)(C(=O)CO)C[C@@H]3O[C@H]1C[C@H](N)[C@H](O)[C@H](C)O1` [Doxorubicin], in the test on mouse tumor, the apoptosis signal entry is listed as “apoptosis overlaps with the region that received doxorubicin”. Moreover, in the test on lymphoma tumor (FIG. 8, one tumor slice, needle array delivery), the “cell death in tumor slice, relative to doxorubicin fluorescence” value is recorded as “doxorubicin fluorescence overlaps with the region of dead cells”. In the test with lymphoma tumor (FIG. 9, three cross-sectional slices from different depths), the “cell death across tumor depths” value is on record as “Cell death was observed in a localized area across the three tumor depths”.

As to `CC1=C2C[C@H]3[C@@H](CC[C@@H]4C[C@H](NS(C)(=O)=O)CC[C@@]43C)[C@@H]2CC[C@@]2(C1)O[C@@H]1C[C@H](C)CN[C@H]1[C@H]2C` [IPI-926], in test [1], the survival result was “significantly increased survival”.

The record behind these values is patent US20130280755A1, “THERAPEUTIC METHODS FOR SOLID DELIVERY” (Fred Hutchinson Cancer Research Center, priority 2010, published 2013).
